Measurements: ChEMBL document CHEMBL1201862, “PubChem BioAssay data set” (2004)
Values joined by “and” are separate entries in the source; they are usually repeats but may differ in a detail not shown here. Equal values may be shown once.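 These data come from cells grown in 96-well plates and exposed to compound for 48 hours at five concentrations. GI50 = concentration required for 50% inhibition of growth.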 Active and inactive are the calls of the source. Rule as the data show it: active = GI50 up to about 1.1 µM and inactive = higher.

Assays:
Assay in all cases: NCI tumour cell line growth inhibition, 48 h
TK-10 = system: TK-10
KM-20L2 = system: KM-20L2
OVCAR-8 = system: OVCAR-8
U-251 = system: U-251
UO-31 = system: UO-31
K562 = system: K562
DMS-114 = system: DMS-114
LOX IMVI = system: LOX IMVI
786-0 = system: 786-0
NCI-H460 = system: NCI-H460
CAKI-1 = system: CAKI-1
NCI-H522 = system: NCI-H522
KM12 = system: KM12
SN12C = system: SN12C
HL-60 = system: HL-60
SR = system: SR
SNB-78 = system: SNB-78
M14 = system: M14
HCC 2998 = system: HCC 2998
UACC-257 = system: UACC-257
HOP-92 = system: HOP-92
SF-539 = system: SF-539
OVCAR-4 = system: OVCAR-4
XF498 = system: XF498
SW-620 = system: SW-620
M19-MEL = system: M19-MEL
NCI-H23 = system: NCI-H23
MOLT-4 = system: MOLT-4
NCI-H226 = system: NCI-H226
DMS-273 = system: DMS-273
OVCAR-3 = system: OVCAR-3
ACHN = system: ACHN
SNB-19 = system: SNB-19
OVCAR-5 = system: OVCAR-5
HCT-15 = system: HCT-15
SK-MEL-28 = system: SK-MEL-28
HOP-62 = system: HOP-62
HT-29 = system: HT-29
SF-295 = system: SF-295
UACC-62 = system: UACC-62
SK-MEL-5 = system: SK-MEL-5
SF-268 = system: SF-268
DLD-1 = system: DLD-1
Malme-3M = system: Malme-3M
LXFL 529 = system: LXFL 529
RXF 631 = system: RXF 631
SNB-75 = system: SNB-75
A549 = system: A549
SK-MEL-2 = system: SK-MEL-2
CCRF-CEM = system: CCRF-CEM
IGROV-1 = system: IGROV-1
HOP-18 = system: HOP-18
EKVX = system: EKVX
SK-OV-3 = system: SK-OV-3
COLO 205 = system: COLO 205
HCT-116 = system: HCT-116
RPMI-8226 = system: RPMI-8226
RXF 393 = system: RXF 393
A498 = system: A498

OC(c1ccccc1)(c1ccccc1)c1ccccn1
GI50 (TK-10): > 100 µM (inactive) | GI50 (KM-20L2): > 100 µM (inactive) | GI50 (OVCAR-8): > 100 µM (inactive) | GI50 (U-251): > 100 µM (inactive) | GI50 (UO-31): > 100 µM (inactive) | GI50 (K562): > 100 µM (inactive) | GI50 (DMS-114): 72.9 µM (inactive) | GI50 (LOX IMVI): > 100 µM (inactive) | GI50 (786-0): > 100 µM (inactive) | GI50 (NCI-H460): > 100 µM (inactive) | GI50 (CAKI-1): > 100 µM (inactive) and 85.7 µM (inactive) | GI50 (NCI-H522): > 100 µM (inactive) | GI50 (KM12): > 100 µM (inactive) | GI50 (SN12C): > 100 µM (inactive) | GI50 (HL-60): 71.3 µM (inactive) | GI50 (SR): > 100 µM (inactive) | GI50 (SNB-78): > 100 µM (inactive) | GI50 (M14): > 100 µM (inactive) | GI50 (HCC 2998): > 100 µM (inactive) | GI50 (UACC-257): > 100 µM (inactive) | GI50 (HOP-92): > 100 µM (inactive) | GI50 (SF-539): > 100 µM (inactive) | GI50 (OVCAR-4): > 100 µM (inactive) | GI50 (XF498): > 100 µM (inactive) | GI50 (SW-620): > 100 µM (inactive) | GI50 (M19-MEL): > 100 µM (inactive) | GI50 (NCI-H23): 83 µM (inactive) | GI50 (MOLT-4): > 100 µM (inactive) | GI50 (NCI-H226): > 100 µM (inactive) | GI50 (DMS-273): > 100 µM (inactive) | GI50 (OVCAR-3): > 100 µM (inactive) | GI50 (ACHN): > 100 µM (inactive) | GI50 (SNB-19): > 100 µM (inactive) | GI50 (OVCAR-5): > 100 µM (inactive) | GI50 (HCT-15): > 100 µM | GI50 (SK-MEL-28): > 100 µM (inactive) | GI50 (HOP-62): > 100 µM (inactive) | GI50 (HT-29): > 100 µM (inactive) | GI50 (SF-295): > 100 µM (inactive) and 80.5 µM (inactive) | GI50 (UACC-62): > 100 µM (inactive) | GI50 (SK-MEL-5): > 100 µM (inactive) | GI50 (SF-268): > 100 µM (inactive) | GI50 (DLD-1): > 100 µM (inactive) | GI50 (Malme-3M): > 100 µM (inactive) | GI50 (LXFL 529): > 100 µM (inactive) | GI50 (RXF 631): > 100 µM (inactive) | GI50 (SNB-75): > 100 µM (inactive) and 63.7 µM (inactive) | GI50 (A549): > 100 µM (inactive) | GI50 (SK-MEL-2): > 100 µM (inactive) | GI50 (CCRF-CEM): > 100 µM (inactive) | GI50 (IGROV-1): > 100 µM (inactive) | GI50 (HOP-18): > 100 µM (inactive) | GI50 (EKVX): > 100 µM (inactive) | GI50 (SK-OV-3): > 100 µM (inactive) | GI50 (COLO 205): > 100 µM (inactive) | GI50 (HCT-116): > 100 µM (inactive) | GI50 (RPMI-8226): 95.5 µM (inactive) | GI50 (RXF 393): > 100 µM (inactive) | GI50 (A498): > 100 µM (inactive)
